Results on 23 molecules are retold here after US8563715B2, “Pyrimidine derivative having cell protecting effect and uses thereof” (Zenyaku Kogyo Kabushikikaisha, priority 2008, dated 2013).

In test [1] the test system is astrocyte/neuron co-culture. Briefly: Brain cell damage induced by hydrogen peroxide treatment (LDH assay). The test is classed as cell-based. The note with it: Rattus norvegicus, hydrogen peroxide (250 μM), 24 hours, read-out: 50% inhibition concentration against cell damage in entire co-culture system (EC50 value). On the procedure: (§1) The brain was removed from 1 to 2 day old Wistar rats (Charles River) or Sprague-Dawley (IGS) rats (Charles River), and the cerebral cortex including the hippocampus was excised under ice cooling. After this cerebral cortex was minced, it was digested with papain solution (9 U/ml) containing DNase I (30 U/ml) at 37 degrees Celsius for 15 minutes, dispersing the cells. After further carrying out mechanical dispersing by pipetting, it was passed through a cell strainer with a pore size of 70 μm, and a cell suspension was obtained. Cells derived from 1.4 cerebra were seeded on 150 mm tissue culture dish (Iwaki Glass), and primary culture was carried out at 37 degrees Celsius and 5% CO2 using a D-MEM medium (Invitrogen) containing 10% heat-inactivated fetal calf serum (JRH). One day after the start of the culture, the nonadherent cells were removed, and the primary cultured astrocytes were obtained by continuing the culture for 4 to 5 further days. The primary cultured astrocytes were dispersed by trypsin treating, suspended in cryopreservation solution, and cryopreserved.
(§2) After thawing the cryopreserved primary cultured astrocytes, they were seeded on tissue culture plates (Iwaki Glass), and a confluent astrocyte layer was produced by a further 7 days of secondary culture using a D-MEM medium containing 10% heat-inactivated fetal calf serum. Neurons to be used in the co-culture with the astrocyte layer were obtained from fetal rat cerebrum. Briefly, brains were removed from Wistar rats (Charles River) or Sprague-Dawley (IGS) rats (Charles River) of embryonic age 18.5 days, and the cerebral cortex including the hippocampus was excised under ice cooling. After this cerebral cortex was minced, it was digested in papain solution (9 U/ml) containing DNase I (30 U/ml) at 37 degrees Celsius for 15 minutes, dispersing the cells. After further carrying out mechanical dispersing by pipetting, it was passed through a cell strainer with a pore size of 70 μm, and a cell suspension was obtained. This cell suspension was plated at a density of 1.3×10^5 cells/cm^2 on the astrocyte layer, and a co-culture was carried out using D-MEM/F-12 medium (Invitrogen) containing 10% heat-inactivated fetal calf serum and 5% horse serum (Invitrogen). 2 days after the start of the co-culture, cells were treated for 24 hours with 10 μM cytosine arabinoside in order to suppress the excessive cell proliferation of microglia and the like. 8 to 9 days after the start of the co-culture, cells were used for the test. Additionally, using one portion of the cells, immunofluorescent staining and nuclear staining was carried out with astrocyte recognizing antibodies (anti-GFAP) and neuron recognizing antibodies (anti-MAP2), in order to confirm that the present culture system is a co-culture system of astrocytes and neurons.
(§3) An astrocyte/neuron co-culture cultured on a 96 well plate was used in the test. A predetermined concentration of the test substance and hydrogen peroxide (250 μM) was simultaneously added to the cell culture in each well with continuing cultivation, and analysis was done 24 hours after this treatment. Using an LDH Cytotoxicity Detection Kit (Takara Bio), analysis was carried out in accordance with the included instruction manual, and the damage to the entire co-culture system by the hydrogen peroxide treatment and the protective effect (EC 50 value) of the test substance was evaluated. Further, the cell bodies and the neuronal processes of the neurons were observed by microscope, and the neuroprotective effect was evaluated.

The test system of test [2] is neurons in astrocyte/neuron co-culture. Briefly: Brain cell damage induced by hydrogen peroxide treatment (neuroprotective effect, microscope observation). The test is classed as cell-based. The note with it: Rattus norvegicus, hydrogen peroxide (250 μM), 24 hours, read-out: Concentration for complete inhibition of neuronal death. On the procedure:
as §1, §2, §3

The structures appear in SMILES notation.

For `c1ccc(N2CCN(c3nc(N4CCNCC4)cc(N4CCOCC4)n3)CC2)cc1` [Compound 52, 4-morpholino-2-(4-phenylpiperazin-1-yl)-6-(piperazin-1-yl)pyrimidine], the EC50 in test [1] turned out to be 3160 nM. Besides, the EC100 in test [2] came out at 30 µM.

With `CCCNc1cc(N2CCOCC2)nc(N2CCN(c3ccccc3)CC2)n1` [Compound 56, 4-morpholino-2-(4-phenylpiperazin-1-yl)-6-propylaminopyrimidine], in test [1], the EC50 amounted to 2950 nM. Also, the EC100 in test [2] was 10 µM.

Turning to `Cc1ccccc1N1CCN(c2nc(N3CCOCC3)cc(N3CCN(c4ccccc4)CC3)n2)CC1` [Compound 61, 2-[4-(2-methylphenyl)piperazin-1-yl]-6-morpholino-4-(4-phenylpiperazin-1-yl)pyrimidine], the EC50 in test [1] worked out at 6450 nM. In addition, in test [2], the EC100 amounted to 10 µM.

Regarding `CC(=O)Nc1c(N2CCOCC2)nc(N2CCOCC2)nc1N1CCC(Cc2ccccc2)CC1` [Compound 78, 5-acetylamino-4-(4-benzylpiperidin-1-yl)-2,6-dimorpholinopyrimidine], in test [1], the EC50 was 9750 nM. The EC100 in test [2] stood at 30 µM.

As to `Fc1c(N2CCOCC2)nc(N2CCN(C3CCCCC3)CC2)nc1N1CCOCC1` [Compound 123, 2-(4-cyclohexylpiperazin-1-yl)-5-fluoro-4,6-dimorpholinopyrimidine], the EC50 in test [1] worked out at 2980 nM. Moreover, the EC100 in test [2] is 10 µM.

As for `Cc1ccccc1N1CCN(c2nc(N3CCOCC3)c(F)c(N3CCN(c4ccccc4)CC3)n2)CC1` [Compound 128, 5-fluoro-2-[4-(2-methylphenyl)piperazin-1-yl]-6-morpholino-4-(4-phenylpiperazin-1-yl)pyrimidine], the EC50 in test [1] turned out to be 300 nM. Further, in test [2], the EC100 is 3 µM.

For `Cc1ccc(N2CCN(c3nc(N4CCOCC4)c(F)c(N4CCN(C(=O)OC(C)(C)C)CC4)n3)CC2)cc1` [Compound 153, 4-[4-(tert-butoxycarbonyl)piperazin-1-yl]-5-fluoro-2-[4-(4-methylphenyl)piperazin-1-yl]-6-morpholinopyrimidine], the EC50 in test [1] was 450 nM. For the same molecule, in test [2], the EC100 amounted to 3 µM.

As for `Cc1ccc(N2CCN(c3nc(N4CCOCC4)nc(N4CCN(C)CC4)c3F)CC2)cc1` [Compound 155, 5-fluoro-4-[4-(4-methylphenyl)piperazin-1-yl]-6-(4-methylpiperazin-1-yl)-2-morpholinopyrimidine], in test [1], the EC50 turned out to be 320 nM. Besides, in test [2], the EC100 is 3 µM.

With `Cc1ccc(N2CCN(c3nc(NCCN4CCNCC4)nc(N4CCOCC4)c3F)CC2)cc1` [Compound 158, 5-fluoro-4-[4-(4-methylphenyl)piperazin-1-yl]-6-morpholino-2-[2-(piperazin-1-yl)-ethylamino]pyrimidine], the EC50 in test [1] came to 160 nM. The EC100 in test [2] came to 1 µM.

For `Cc1ccc(N2CCN(c3nc(N4CCOCC4)nc(NCCN4CCOCC4)c3F)CC2)cc1` [Compound 160, 5-fluoro-4-[4-(4-methylphenyl)piperazin-1-yl]-2-morpholino-6-(2-morpholinoethylamino)pyrimidine], the EC50 in test [1] stood at 1080 nM. Moreover, in test [2], the EC100 was determined as 3 µM.

On to `CC(C)(C)OC(=O)N1CCN(c2nc(N3CCCc4ccccc43)nc(N3CCOCC3)c2F)CC1` [Compound 168, 4-[4-(tert-butoxycarbonyl)piperazin-1-yl]-5-fluoro-6-morpholino-2-(1,2,3,4-tetrahydro-1H-quinolin-1-yl)pyrimidine], for which, in test [1], the EC50 was determined as 310 nM. Moreover, the EC100 in test [2] stood at 3 µM.

In the case of `COc1ccc(/C=C/c2nc(NCCN)c(N)c(N3CCOCC3)n2)cc1` [Compound 174, 5-amino-4-(2-aminoethylamino)-2-[2-(4-methoxyphenyl)vinyl]-6-morpholinopyrimidine], the EC50 in test [1] amounted to 3110 nM. Also, the EC100 in test [2] turned out to be 10 µM.

Take `Cc1cccc(N2CCN(c3nc(N4CCNCC4)nc(N4CCOCC4)c3F)CC2)c1C` [Compound 178, 5-fluoro-4-morpholino-2-(1-piperazinyl)-6-[4-(2,3-xylyl)piperazin-1-yl]pyrimidine]: the EC50 in test [1] amounted to 480 nM. Further, the EC100 in test [2] is 3 µM.

As for `Cc1cccc(N2CCN(c3nc(N4CCOCC4)c(F)c(N4CCN(C(=O)OC(C)(C)C)CC4)n3)CC2)c1C` [Compound 179, 4-(4-tert-butoxycarbonylpiperazin-1-yl)-5-fluoro-6-morpholino-2-[4-(2,3-xylyl)piperazin-1-yl]pyrimidine], the EC50 in test [1] was found to be 340 nM. For the same molecule, the EC100 in test [2] is 3 µM.

For `CN1CCN(c2nc(N3CCN(c4ccccc4Cl)CC3)nc(N3CCOCC3)c2F)CC1` [Compound 187, 2-[4-(2-chlorophenyl)piperazin-1-yl]-5-fluoro-6-(4-methylpiperazin-1-yl)-4-morpholino pyrimidine], in test [1], the EC50 stood at 330 nM. In addition, the EC100 in test [2] was 1 µM.

For the molecule `CCOc1ccccc1N1CCN(c2nc(N3CCOCC3)c(F)c(N3CCN(C)CC3)n2)CC1` [Compound 190, 2-[4-(2-ethoxyphenyl)piperazin-1-yl]-5-fluoro-4-(4-methylpiperazin-1-yl)-6-morpholinopyrimidine], the EC50 in test [1] amounted to 340 nM. Besides, the EC100 in test [2] is 3 µM.

Regarding `Cc1cccc(N2CCN(c3nc(N4CCN(Cc5ccc(N(C)C)cc5)CC4)nc(N4CCOCC4)c3F)CC2)c1C` [Compound 192, 5-fluoro-2-[4-(4-dimethylaminobenzyl)piperazin-1-yl]-4-morpholino-6-[4-(2,3-xylyl)piperazin-1-yl]pyrimidine], the EC50 in test [1] is 300 nM. The EC100 in test [2] was 1 µM.

As to `COc1ccc(/C=C/c2nc(NCC(N)=O)c(N)c(N3CCOCC3)n2)cc1` [Compound 206, 5-amino-4-carbamoylmethylamino-2-[2-(4-methoxyphenyl)vinyl]-6-morpholinopyrimidine], the EC50 in test [1] came out at 4850 nM. The EC100 in test [2] stood at 10 µM.

Regarding `COc1ccc(/C=C/c2nc(NCCN3CCOCC3)c(N)c(N3CCOCC3)n2)cc1` [Compound 207, 5-amino-2-[2-(4-methoxyphenyl)vinyl]-4-morpholino-6-(2-morpholinoethylamino)pyrimidine], the EC50 in test [1] was found to be 5800 nM. Also, the EC100 in test [2] worked out at 10 µM.

As to `CCOC(=O)C1CSCCN1c1nc(/C=C/c2ccc(OC)cc2)nc(N2CCOCC2)c1N` (stereo not shown) [Compound 209, 5-amino-4-(3-ethoxycarbonylthiomorpholin-4-yl)-2-[2-(4-methoxyphenyl)vinyl]-6-morpholinopyrimidine], the EC50 in test [1] was found to be 1480 nM. For the same molecule, in test [2], the EC100 is 10 µM.

Turning to `COc1ccc(/C=C/c2nc(N(C)C)c(N)c(N3CCNCC3)n2)cc1` [Compound 210, 5-amino-4-dimethylamino-2-[2-(4-methoxyphenyl)vinyl]-6-(1-piperazinyl)pyrimidine], the EC50 in test [1] was determined as 4070 nM. The EC100 in test [2] amounted to 10 µM.

As to `COc1ccc(CCc2nc(N3CCOCC3)c(N)c(N3CCN(S(=O)(=O)N(C)C)CC3)n2)cc1` [Compound 214, 5-amino-4-(4-dimethylsulfamoylpiperazin-1-yl)-2-[2-(4-methoxyphenyl)ethyl]-6-morpholinopyrimidine], in test [1], the EC50 came out at 2260 nM. The EC100 in test [2] stood at 10 µM.

For the molecule `COc1ccc(/C=C/c2nc(N3CCOCC3)c(N)c(N3CCN(S(=O)(=O)N(C)C)CC3)n2)cc1` [Compound 215, 5-amino-4-(4-dimethylsulfamoylpiperazin-1-yl)-2-[2-(4-methoxyphenyl)vinyl]-6-morpholinopyrimidine], the EC50 in test [1] stood at 1610 nM. Besides, the EC100 in test [2] worked out at 10 µM.
